Reference: article PMC9560627, “Targeting Echinococcus multilocularis PIM kinase for improving anti-parasitic chemotherapy” (PLoS Neglected Tropical Diseases, 2022)
Read-outs that look alike come from different tables or passages of the source.

Legend:
FLT3 = settings: cited from earlier work
E. multilocularis MV = test: Mature metacestode vesicle (MV) assay, structural integrity by microscopy; format: cell-based, Echinococcus multilocularis; settings: for structural vesicle damage of MV (screen of 20 in silico compounds): 3 and 10 μM
Description: In mature MV assays, 10 individual MV each were cultured in 2 ml of conditioned medium (100% A6 medium) in the presence of inhibitors in 12 well plates under axenic conditions for 28 d as described in [39]. […] Structural integrity of MV was assessed using an optical microscope (Nikon eclipse Ts2-FL). Experimental set-up and execution of inhibitor studies and structural integrity assessment was performed by independent experimenters. Criteria for intact or damaged vesicles were essentially as previously described. All experiments were performed using 3 biological replicates. Percentages of structurally intact vesicles were statistically analyzed with one-way ANOVA with Dunnet’s multiple comparison tests in Graphpad prism 9.3.1(Graphpad software).

HepG2 cells = test: Mammalian cell toxicity, Cell Titer Glo 2.0 viability; format: cell-based, human; settings: for IC50: read-out: IC50 against HepG2 cells
Description: (§1) The toxicity of inhibitors against mammalian cells was evaluated by treatment of the commonly used cell lines HEK293T [42] and HepG2 [43], which were cultivated and passaged as described in [43, 44]. […] 24 h after seeding, 50 μl of DMEM+GlutaMAX-I including FBS and inhibitors were added. Final concentrations of inhibitors were adjusted to 0–30 μM as indicated, DMSO alone was used as a control. Plates were incubated for 3 d under aerobic conditions and cell viability was measured using the Cell Titer Glo 2.0 system (Promega) according to the manufacturer’s instructions. Luminescence was measured by a Spectramax iD3 Multi-mode Microplate reader (Molecular Devices). Three independent experiments with three technical replicates were carried out for both cell lines. Luminescence units were normalized to the DMSO control of each independent experiment and expressed as percentage of luminescence unit. One-Way-ANOVA test followed by Tukey’s multiple comparisons test was used in GraphPad Prism version 9.3.1 (Graphpad software) for statistical analysis. Based on the cell viability data, dose-response curves were drawn and IC50 (best fit value) were calculated using GraphPad Prism version 9.3.1 (Graphpad software).

HEK293T cells = test: as above; format: cell-based, human; settings: for IC50: read-out: IC50 against HEK293T cells
Description: as §1

human Pim-3 = settings: cited from earlier work
human Pim-1 = settings: cited from earlier work
human Pim-2 = settings: cited from earlier work
E. multilocularis PC [1] = test: Vesicle formation assay (MV formation from PC); format: cell-based, Echinococcus multilocularis
Description: In vesicle formation assays, PC were isolated as described above and 100 U of isolated PC (~1.5×10^4 cells/well) were seeded in 96 well plates with 200 μl of conditioned medium (50% A6 medium + 50% B4 medium) for 21 d under nitrogen atmosphere. The number of newly formed vesicles was counted using an optical microscope (Nikon eclipse Ts2-FL) essentially as previously described. Kruskal-Wallis test followed by Dunn’s multiple comparisons test was used in GraphPad Prism version 9.3.1(Graphpad software) to analyze the difference of vesicle numbers in control and treatment groups. In this analysis, all concentrations were compared with the negative control DMSO. Experiments with SGI-1776 and CX-6258 were performed in three biological and technical replicates. Experiments with SGI-1776 and Z196138710 were performed in three technical replicates.

haspin = settings: cited from earlier work
E. multilocularis PC [2] = test: Cell viability assay (Cell Titer Glo 2.0) on E. multilocularis primary cell cultures (PC), initial kinase inhibitor screen; format: cell-based, Echinococcus multilocularis; settings: for inhibition at 10 µM: Echinococcus multilocularis, read-out: growth inhibition of Echinococcus PC
[3] = system: human Ether-á-go-go-related (hERG) cardiac ion channel; settings: cited from earlier work
solid tumour xenografts = system: solid tumour xenografts; set-up: method as in PMID 22052829, PMID 25589932; settings: mice, plasma concentrations around 3 μM free compound; cited from earlier work
[4] = set-up: method as in PMID 30370255; settings: non-Hodgkin lymphoma and prostate cancer; cited from earlier work
[5] = cited from earlier work
[6] = system: a broad variety of other cell types, including chronic lymphocytic leukemia cells; set-up: method as in PMID 22052829, PMID 19734450; settings: read-out: in vitro IC50 against a broad variety of other cell types; cited from earlier work
E. multilocularis = system: E. multilocularis; set-up: method as in PMID 26389799; settings: cited from earlier work
Echinococcus = settings: ref PMID:9593125; cited from earlier work
[7] = response to reviewers, ref literature, not numbered at the place

CN1CCCN(C(=O)c2cccc(-c3ccc(/C=C4/C(=O)Nc5ccc(Cl)cc54)o3)c2)CC1 [CX-6258]
IC50 (FLT3; read-out: IC50 FLT3): 134 nM | effect on structural integrity of mature MV (E. multilocularis MV; 3 μM, 28 d): did not lead to statistically significant effects | effect on structural integrity of mature MV (E. multilocularis MV; 10 μM, 28 d): drastic loss of structural integrity of all | effect on HepG2 cells (HepG2 cells; 30 and 10 μM, 3 d): fully eliminated | IC50 (HepG2 cells; 3 d, cell viability): ~1000 nM | effect on HEK293T cells (HEK293T cells; 30 and 10 μM, 3 d): fully eliminated | IC50 (HEK293T cells; 3 d, cell viability): ~1000 nM | IC50 (human Pim-3; read-out: IC50 Pim-3): 16 nM | IC50 (human Pim-1; read-out: IC50 Pim-1): […] | IC50 (human Pim-2; read-out: IC50 Pim-2): 25 nM | MV formation from stem cells (PC) (E. multilocularis PC [1]; 3 μM, 21 d): drastically affected MV formation | MV formation from stem cells (PC) (E. multilocularis PC [1]; concentrations higher than 3 μM, 21 d): completely inhibited MV development | activity against haspin kinase (haspin; melanoma cell lines): much higher IC50 values than against Pim-1 and Pim-3

Cc1nc(Nc2ncc(C(=O)Nc3c(C)cccc3Cl)s2)cc(N2CCN(CCO)CC2)n1 [Dasatinib]
effect on parasite PC proliferation (E. multilocularis PC [2]; 10 μM, 3 d and 7 d): stimulated parasite cell proliferation

CN1CCC(CNc2ccc3ncc(-c4cccc(OC(F)(F)F)c4)n3n2)CC1 [SGI-1776]
cause of toxicity in clinical trials: hERG [3]: off-target effects | IC50 (FLT3; read-out: IC50 against FLT3): 44 nM | efficacy against solid tumour xenografts (solid tumour xenografts): effective against solid tumour xenografts in mice | effect on structural integrity of mature MV (E. multilocularis MV; 3 μM, 28 d): did not lead to statistically significant effects | effect on structural integrity of mature MV (E. multilocularis MV; 10 μM, 28 d): almost all | effect on HepG2 cells (HepG2 cells; 30 and 10 μM, 3 d): fully eliminated | IC50 (HepG2 cells; Homo sapiens, HepG2, 72 h): ~1000 nM | effect on HEK293T cells (HEK293T cells; 30 and 10 μM, 3 d): fully eliminated | IC50 (HEK293T cells; Homo sapiens, HEK-293T, 72 h): ~1000 nM | IC50 (human Pim-3; read-out: IC50 against human Pim-3): 69 nM | IC50 (human Pim-1; read-out: IC50 against human Pim-1): […] | toxicity in clinical phase I trials [4]: toxicity in cardiac electric cycle prolongation | compound bound to plasma proteins ([5]; in vivo application in mice): around 95% | well tolerated plasma concentration of free compound (not bound to plasma proteins) ([5]; mice): around 3 μM | concentration of free (unbound) compound achieved in the plasma of mammals [5, 7]: […] | drug bound to human plasma protein [5, 7]: about 95% | inhibition at 10 µM (E. multilocularis PC [2]; 72 h): ~60% | inhibition at 10 µM (E. multilocularis PC [2]; 168 h): ~80% | IC50 [6]: ~3000 nM | IC50 (human Pim-2; read-out: IC50 against human Pim-2): 363 nM | MV formation from stem cells (PC) (E. multilocularis PC [1]; 3 μM, 21 d): did not lead to statistically significant effects | MV formation from stem cells (PC) (E. multilocularis PC [1]; 10 μM, 21 d): almost completely | MV formation from stem cells (PC) (E. multilocularis PC [1]; 30 μM, 21 d): completely prevented | IC50 (haspin; read-out: IC50 against haspin): 34 nM

Cc1noc(C)c1COc1cccc(C(=O)N2CCC(C(N)=O)CC2)c1 [Z30898879]
structural vesicle damage of MV (screen of 20 in silico compounds) (E. multilocularis MV; 28 d): highly effective in inducing structural vesicle damage

CN(C)C(=O)CN1CCN(Cc2nc3scc(-c4ccccc4Cl)c3c(=O)[nH]2)CC1 [Z65225039]
structural vesicle damage of MV (screen of 20 in silico compounds) (E. multilocularis MV; 28 d): highly effective in inducing structural vesicle damage

COc1cc(CNc2ncnc3ccsc23)ccc1OC(F)F [Z196138710, N-(4-(difluoromethoxy)-3-methoxybenzyl)-thieno-[3,2-d]-pyrimidin-4-amine]
concentration effective against the parasite, mature MV (E. multilocularis MV): 10 µM | structural disintegration of MV (E. multilocularis MV; 10 μM, 28 d): 100% | structural vesicle damage of MV (screen of 20 in silico compounds) (E. multilocularis MV; 28 d): highly effective in inducing structural vesicle damage | inhibition of HepG2 cells (HepG2 cells; 30 and 10 μM, 3 d): 40–60% | IC50 (HepG2 cells; Homo sapiens, HepG2, 72 h, 3 d, cell viability): 16000 nM | inhibition of HEK293T cells (HEK293T cells; 30 and 10 μM, 3 d): 40–60% | IC50 (HEK293T cells; Homo sapiens, HEK-293T, 72 h, 3 d, cell viability): 11000 nM | concentration effective against the parasite, stem cell cultures (E. multilocularis PC [1]): 3 µM | MV formation from stem cells (PC) (E. multilocularis PC [1]; 10 μM, 21 d): completely prevented MV formation | MV development from primary cells, comparison with SGI-1776 (E. multilocularis PC [1]; different concentrations, 21 d): effects similar to those of SGI-1776

CCC1CN(Cc2nc3cc(OC)c(OC)cc3c(=O)[nH]2)CCO1 (stereo not drawn) [Z354576500]
structural vesicle damage of MV (screen of 20 in silico compounds) (E. multilocularis MV; 28 d): highly effective in inducing structural vesicle damage

CCCSc1ccc2nc(NC(=O)OC)[nH]c2c1 [albendazole]
efficacy against the parasite in AE patients (E. multilocularis): effective against the parasite in only one third of cases

COC(=O)Nc1nc2ccc(C(=O)c3ccccc3)cc2[nH]1 [mebendazole]
efficacy against the parasite in AE patients (E. multilocularis): effective against the parasite in only one third of cases | in vitro active concentrations (Echinococcus): 1 to 10 µM
